Assay results taken from ChEMBL document CHEMBL1152817, “Prevention of organ allograft rejection by a specific Janus kinase 3 inhibitor” (Science, 2003).

Legend:
[1] = target: Tyrosine-protein kinase JAK1 (Homo sapiens, UniProt P23458)
T-cell = assay: cells; settings: Homo sapiens
Description: Inhibition of IL2-induced proliferation of human T cells assessed as [3H]thymidine incorporation after 72 hrs by scintillation counting

[2] = target: Tyrosine-protein kinase JAK2 (Homo sapiens, UniProt O60674)
cells = settings: Homo sapiens, HUO3
Description: Inhibition of human GM-CSF-induced proliferation in human HUO3 cells assessed as [3H]thymidine incorporation after 4 days by scintillation counting

HFF = assay: cells; settings: Homo sapiens
Description: Inhibition of fetal calf serum-induced proliferation of human foreskin fibroblast assessed as [3H]thymidine incorporation after 4 days by scintillation counting

Chain of Tyrosine-protein kinase JAK1 (P23458 whole entry): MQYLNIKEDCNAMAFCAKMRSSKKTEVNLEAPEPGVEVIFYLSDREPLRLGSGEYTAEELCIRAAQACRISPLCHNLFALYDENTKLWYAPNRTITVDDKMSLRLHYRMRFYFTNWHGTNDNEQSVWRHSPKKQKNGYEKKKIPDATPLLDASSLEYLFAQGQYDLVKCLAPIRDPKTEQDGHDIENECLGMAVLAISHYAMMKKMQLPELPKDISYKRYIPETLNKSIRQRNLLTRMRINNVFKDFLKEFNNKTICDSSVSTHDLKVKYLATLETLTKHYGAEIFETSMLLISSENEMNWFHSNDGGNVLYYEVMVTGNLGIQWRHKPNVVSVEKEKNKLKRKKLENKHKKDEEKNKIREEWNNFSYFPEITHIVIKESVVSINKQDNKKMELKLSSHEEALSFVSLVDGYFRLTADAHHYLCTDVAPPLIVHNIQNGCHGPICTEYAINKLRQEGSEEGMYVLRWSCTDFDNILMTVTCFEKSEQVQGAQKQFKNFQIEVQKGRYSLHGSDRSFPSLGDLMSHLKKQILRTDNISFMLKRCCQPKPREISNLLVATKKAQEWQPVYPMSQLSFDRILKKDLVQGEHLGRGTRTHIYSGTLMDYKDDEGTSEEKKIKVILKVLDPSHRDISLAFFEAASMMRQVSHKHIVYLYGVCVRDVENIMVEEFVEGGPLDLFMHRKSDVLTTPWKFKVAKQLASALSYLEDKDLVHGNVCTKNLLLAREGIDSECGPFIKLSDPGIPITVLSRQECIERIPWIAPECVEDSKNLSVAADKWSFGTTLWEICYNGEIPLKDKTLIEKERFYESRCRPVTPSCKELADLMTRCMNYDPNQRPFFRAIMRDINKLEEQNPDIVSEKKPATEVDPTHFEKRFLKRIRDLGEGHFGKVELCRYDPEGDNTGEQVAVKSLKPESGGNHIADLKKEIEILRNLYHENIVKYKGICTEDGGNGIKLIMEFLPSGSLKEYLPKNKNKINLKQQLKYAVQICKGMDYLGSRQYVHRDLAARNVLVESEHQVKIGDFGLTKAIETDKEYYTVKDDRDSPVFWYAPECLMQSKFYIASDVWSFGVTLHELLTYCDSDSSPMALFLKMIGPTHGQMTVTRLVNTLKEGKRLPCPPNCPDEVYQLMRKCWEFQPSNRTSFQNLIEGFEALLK
Chain of Tyrosine-protein kinase JAK2 (O60674 whole entry): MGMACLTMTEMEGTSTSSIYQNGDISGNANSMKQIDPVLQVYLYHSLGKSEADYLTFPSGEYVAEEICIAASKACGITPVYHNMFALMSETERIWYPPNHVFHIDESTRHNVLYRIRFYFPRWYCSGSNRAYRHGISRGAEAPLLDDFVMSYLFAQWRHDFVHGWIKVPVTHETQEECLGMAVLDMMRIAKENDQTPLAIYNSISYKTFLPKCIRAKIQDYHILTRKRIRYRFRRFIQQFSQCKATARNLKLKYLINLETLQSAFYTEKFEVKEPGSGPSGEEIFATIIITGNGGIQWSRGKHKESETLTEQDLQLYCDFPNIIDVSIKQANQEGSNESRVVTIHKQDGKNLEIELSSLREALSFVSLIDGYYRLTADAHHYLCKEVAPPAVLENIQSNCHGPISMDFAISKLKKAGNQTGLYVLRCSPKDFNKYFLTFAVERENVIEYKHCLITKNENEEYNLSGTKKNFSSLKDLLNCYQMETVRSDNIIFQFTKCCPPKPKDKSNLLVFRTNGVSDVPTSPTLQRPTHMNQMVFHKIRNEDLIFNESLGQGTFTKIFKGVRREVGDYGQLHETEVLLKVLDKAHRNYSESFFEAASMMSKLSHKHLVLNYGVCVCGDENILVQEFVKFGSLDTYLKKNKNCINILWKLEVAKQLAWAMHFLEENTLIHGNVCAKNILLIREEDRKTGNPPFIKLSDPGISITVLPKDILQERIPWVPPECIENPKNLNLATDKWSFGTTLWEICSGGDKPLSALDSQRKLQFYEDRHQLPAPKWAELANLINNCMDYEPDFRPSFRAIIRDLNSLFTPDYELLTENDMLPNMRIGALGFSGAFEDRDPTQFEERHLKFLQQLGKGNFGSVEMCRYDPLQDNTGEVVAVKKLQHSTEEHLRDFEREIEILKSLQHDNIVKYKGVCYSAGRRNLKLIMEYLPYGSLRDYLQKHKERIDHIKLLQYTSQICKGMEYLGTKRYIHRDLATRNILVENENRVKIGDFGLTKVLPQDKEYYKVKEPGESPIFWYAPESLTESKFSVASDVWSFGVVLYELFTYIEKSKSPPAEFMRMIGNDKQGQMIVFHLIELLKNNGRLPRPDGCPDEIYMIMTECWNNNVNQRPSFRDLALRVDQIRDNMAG

Row | SMILES | IC50 [1] | IC50 (T-cell) | IC50 [2] | IC50 (cells) | IC50 (HFF)
1 | COc1cc2ncnc(Nc3ccc(O)cc3)c2cc1OC [WHI-P131] | > 10 µM | > 10 µM | > 10 µM | > 10 µM | 
2 | N#C/C(=C\c1ccc(O)c(O)c1)C(=O)NCc1ccccc1 | 3.38 µM | 3.75 µM | > 10 µM | 7.56 µM | 5.58 µM
3 | COc1cc2ncnc(Nc3ccc(O)c(Br)c3)c2cc1OC | > 10 µM | 5.09 µM | > 10 µM |  | 6.34 µM
4 | c1ccc2c(c1)C1CCCCC1N2c1ncnc2[nH]ccc12 (stereo not given) |  | 3.69 µM |  |  | 10 µM
